Source: the supplement of paper PMC10307832

Tests used:
Experiment in all cases: relative viability (nuclei count vs DMSO), 5 days (fraction); higher = more cells survive
NCI-H1734 = system: NCI-H1734
Method in brief: (§1)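 Lung cancer cell lines in 1536-well plates were dosed by pin tool the day after seeding, either with one drug alone or with a fixed anchor-drug dose plus five library-drug doses (not always all listed) in √10 steps. After 5 days, cells were fixed and their nuclei stained in one step (final 0.05% Triton X-100, 1% formaldehyde, 1 ug/ml Hoechst), then counted on 4× images. Relative viability is the nuclei count in treated wells divided by that in vehicle wells. Values are medians of duplicate plates.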

NCI-H1793 = system: NCI-H1793
Method in brief: as §1

NCI-H1944 = system: NCI-H1944
Method in brief: as §1

NCI-H1993 = system: NCI-H1993
Method in brief: as §1

NCI-H2009 = system: NCI-H2009
Method in brief: as §1

NCI-H2023 = system: NCI-H2023
Method in brief: as §1

NCI-H2228 = system: NCI-H2228
Method in brief: as §1

NCI-H23 = system: NCI-H23
Method in brief: as §1

NCI-H2405 = system: NCI-H2405
Method in brief: as §1

NCI-H838 = system: NCI-H838
Method in brief: as §1

SK-LU-1 = system: SK-LU-1
Method in brief: as §1

UMC-11 = system: UMC-11
Method in brief: as §1

COc1cc(N2CCC(C(N)=O)CC2)ccc1Nc1nc(N)c(Cl)c(Nc2ccccc2S(=O)(=O)C(C)C)n1 [HG-5-88-01] + CC1(C)CCC(c2ccc(Cl)cc2)=C(CN2CCN(c3ccc(C(=O)NS(=O)(=O)c4ccc(N[C@H](CCN5CCOCC5)CSc5ccccc5)c(S(=O)(=O)C(F)(F)F)c4)cc3)CC2)C1 [Navitoclax] (partner 0.5 µM)
relative viability (NCI-H1734; first compound 0.4 µM): 0.943 | relative viability (NCI-H1734; first compound 1.265 µM): 0.827 | relative viability (NCI-H1734; first compound 4 µM): 0.757 | relative viability (NCI-H1793; first compound 0.1265 µM): 0.409 | relative viability (NCI-H1793; first compound 0.4 µM): 0.473 | relative viability (NCI-H1793; first compound 1.265 µM): 0.296 | relative viability (NCI-H1793; first compound 4 µM): 0.438 | relative viability (NCI-H1944; first compound 0.04 µM): 1.03 | relative viability (NCI-H1944; first compound 0.1265 µM): 1.15 | relative viability (NCI-H1944; first compound 0.4 µM): 1.11 | relative viability (NCI-H1944; first compound 1.265 µM): 0.985 | relative viability (NCI-H1944; first compound 4 µM): 1.04 | relative viability (NCI-H1993; first compound 0.04 µM): 1.06 | relative viability (NCI-H1993; first compound 0.1265 µM): 0.976 | relative viability (NCI-H1993; first compound 0.4 µM): 0.911 | relative viability (NCI-H1993; first compound 1.265 µM): 0.736 | relative viability (NCI-H1993; first compound 4 µM): 0.735 | relative viability (NCI-H2009; first compound 0.04 µM): 1.2 | relative viability (NCI-H2009; first compound 0.1265 µM): 1.32 | relative viability (NCI-H2009; first compound 0.4 µM): 1.15 | relative viability (NCI-H2009; first compound 1.265 µM): 1.06 | relative viability (NCI-H2009; first compound 4 µM): 1.15 | relative viability (NCI-H2023; first compound 0.04 µM): 1.01 | relative viability (NCI-H2023; first compound 0.1265 µM): 0.94 | relative viability (NCI-H2023; first compound 0.4 µM): 0.934 | relative viability (NCI-H2023; first compound 1.265 µM): 0.787 | relative viability (NCI-H2023; first compound 4 µM): 0.804 | relative viability (NCI-H2228; first compound 0.04 µM): 0.65 | relative viability (NCI-H2228; first compound 0.1265 µM): 0.295 | relative viability (NCI-H2228; first compound 0.4 µM): 0.485 | relative viability (NCI-H2228; first compound 1.265 µM): 0.417 | relative viability (NCI-H2228; first compound 4 µM): 0.27 | relative viability (NCI-H23; first compound 0.04 µM): 0.945 | relative viability (NCI-H23; first compound 0.1265 µM): 0.932 | relative viability (NCI-H23; first compound 0.4 µM): 0.809 | relative viability (NCI-H23; first compound 1.265 µM): 0.815 | relative viability (NCI-H23; first compound 4 µM): 0.659 | relative viability (NCI-H2405; first compound 0.04 µM): 0.99 | relative viability (NCI-H2405; first compound 0.1265 µM): 1.03 | relative viability (NCI-H2405; first compound 0.4 µM): 0.825 | relative viability (NCI-H2405; first compound 1.265 µM): 0.319 | relative viability (NCI-H2405; first compound 4 µM): 0.784 | relative viability (NCI-H838; first compound 0.04 µM): 1.09 | relative viability (NCI-H838; first compound 0.1265 µM): 1.2 | relative viability (NCI-H838; first compound 0.4 µM): 1.07 | relative viability (NCI-H838; first compound 1.265 µM): 0.973 | relative viability (NCI-H838; first compound 4 µM): 0.904 | relative viability (SK-LU-1; first compound 0.04 µM): 0.997 | relative viability (SK-LU-1; first compound 0.1265 µM): 0.99 | relative viability (SK-LU-1; first compound 0.4 µM): 0.791 | relative viability (SK-LU-1; first compound 1.265 µM): 0.98 | relative viability (SK-LU-1; first compound 4 µM): 0.791 | relative viability (UMC-11; first compound 0.04 µM): 0.338 | relative viability (UMC-11; first compound 0.1265 µM): 0.376 | relative viability (UMC-11; first compound 0.4 µM): 0.333 | relative viability (UMC-11; first compound 1.265 µM): 0.322 | relative viability (UMC-11; first compound 4 µM): 0.303
